In ChEMBL document CHEMBL3886351, “TrkA kinase inhibitors, compositions and methods thereof” (2015) one finds EC50 data, which are given here for seven compounds.

This assay deals with High affinity nerve growth factor receptor (Homo sapiens, UniProt P04629). As to the kind of experiment: Kinase Activity Assay: TrkA kinase activity was measured as the ability of the enzyme to phosphorylate a fluorescently labeled peptide substrate. Buffer salts, reagents, and fluorescently labeled peptides were purchased from Carna Biosciences and were of the highest quality available (QSS Assist TRKA_MSA Kit). Enzyme was purchased from Cell Signaling, and was used without further purification. 384-well round bottom assay plates were prepared by the addition of 200 nl of a DMSO solution of compound at various concentrations to final inhibitor concentrations ranging from 100 μM to […]. Next, assay buffer (10 μl) containing substrate and ATP were added, followed by addition of 10 μl of enzyme in assay buffer. Final assays concentrations were: [E]=0.37 nM, [S]=1 μM, [ATP]=2 mM. The reactions were incubated at room temperature for 3 hours resulting in approximately 15% substrate phosphorylation and were terminated by the addition of 5 μl of stop buffer.
Chain of High affinity nerve growth factor receptor (P04629 whole entry): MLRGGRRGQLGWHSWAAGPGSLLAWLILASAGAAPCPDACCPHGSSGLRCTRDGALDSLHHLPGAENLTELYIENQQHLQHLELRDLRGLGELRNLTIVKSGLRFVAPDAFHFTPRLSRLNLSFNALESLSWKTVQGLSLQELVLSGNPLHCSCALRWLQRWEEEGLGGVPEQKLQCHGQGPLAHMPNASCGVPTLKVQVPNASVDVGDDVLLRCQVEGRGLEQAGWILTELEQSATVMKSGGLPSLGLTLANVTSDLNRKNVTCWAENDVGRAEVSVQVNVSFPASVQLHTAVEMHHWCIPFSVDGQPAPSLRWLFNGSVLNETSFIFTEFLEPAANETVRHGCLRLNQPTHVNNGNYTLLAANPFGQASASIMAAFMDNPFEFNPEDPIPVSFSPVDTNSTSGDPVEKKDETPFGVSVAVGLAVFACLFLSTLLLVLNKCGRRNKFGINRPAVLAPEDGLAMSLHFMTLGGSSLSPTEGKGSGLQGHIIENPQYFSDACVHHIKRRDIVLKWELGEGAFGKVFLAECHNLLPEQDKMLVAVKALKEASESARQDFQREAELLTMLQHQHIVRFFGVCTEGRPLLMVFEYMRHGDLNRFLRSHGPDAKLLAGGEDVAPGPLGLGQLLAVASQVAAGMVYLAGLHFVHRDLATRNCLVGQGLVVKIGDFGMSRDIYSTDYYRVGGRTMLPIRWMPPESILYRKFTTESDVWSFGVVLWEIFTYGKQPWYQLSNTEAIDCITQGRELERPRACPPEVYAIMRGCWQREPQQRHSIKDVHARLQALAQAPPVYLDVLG

The structures appear in SMILES notation.

Take `CC1(C)CCN(c2ccc(SC(F)(F)F)cc2)C(=O)N1Cc1c[nH]c2ncccc12`: the EC50 came to 19.7 nM.

As to `CC(C)N(Cc1cc(-c2nccs2)ccn1)C(=O)Nc1ccc(OC(F)(F)F)cc1`, the EC50 was found to be 8080 nM.

In the case of `CC(C)N(Cc1cccc(-c2nccs2)c1)C(=O)Nc1ccc(OC(F)(F)F)cc1`, the EC50 is 119 nM.

For the compound `CC(C)N(Cc1n[nH]c2ncccc12)C(=O)Nc1ccc(OC(F)(F)F)cc1`, the EC50 is 141 nM.

Consider `C#CC(C)N(Cc1cccc(-c2nccs2)c1)C(=O)Nc1ccc(OC(F)(F)F)cc1` (configuration not stated), for which the EC50 came to 48 nM.

For `CC(C)N(Cc1n[nH]c2ncccc12)C(=O)Nc1ccc(SC(F)(F)F)cc1`, the half-maximal effective concentration (EC50) came to 24.9 nM.

For the compound `CC(C)N(Cc1cccc(-c2nccs2)c1)C(=O)Nc1cnc(C(C)(C)C)nc1`, the EC50 was determined as 102 nM.

For orientation: EC50 means the concentration giving half of the maximal effect.
